In one series the test system is Escherichia coli. As to the kind of experiment: Activity in vivo: mice infected intraperitoneally with Escherichia coli, survival on the 4th day. To be noted: 96 h, survivors on 4th day, by interpolation, read-out: CD50 (dosage at which 50% of the mice survive). How it is done:
Groups of 5 mice are infected intraperitoneally with an aqueous suspension of Escherichia coli. The derivative to be tested is administered orally or subcutaneously 1, 2.5 and 4 hours after the infection. The number of surviving mice is determined on the 4th day. Various dosages of the derivative are administered and the dosage at which 50% of the mice survive (CD50, mg/kg) is determined by interpolation.

The nature of series [1]: Toxicity (mice, 24 hour value). The following applies: mouse, in vivo, po. How it is done:
|Toxicity: (mice, 24 hour value)

Setting [2] is: oral, 1, 2.5 and 4 hours after intraperitoneal infection.
Where [3] appears, read: sc, subcutaneous, 1, 2.5 and 4 hours after intraperitoneal infection.

ED50 and LD50 data for 2 molecules are collected here from US4292428A, “Cephalosporin derivatives” (Hoffmann-La Roche Inc., priority 1978, dated 1981).

Where two headings read alike, the source gives them in different places.

In general, LD50 refers to the dose at which mortality reaches 50%. Low values mean greater toxicity, high ones lower toxicity. Turning to `CON=C(C(=O)NC1C(=O)N2C(C(=O)OCOC(=O)C(C)(C)C)=C(CSc3n[nH]c(=O)c(=O)n3C)CSC12)c1ccco1` [Derivative A, Methylene-(6R,7R)-7-[2-(2-furyl)-2-(methoxyimino)-acetamido]-8-oxo-3-[[(1,4,5,6-tetrahydro-4-methyl-5,6-dioxo-as-triazin-3-yl)thio]methyl]-5-thia-1-azabicyclo-[4.2.0]oct-2-ene-2-carboxylate pivalate (Z-isomer)], the ED50 in the series with Escherichia coli (setting [2]) worked out at 0.05 mg/kg; in the series on Escherichia coli (setting [3]), 0.02 mg/kg. In addition, the LD50 at 24 h in series [1] is 2500 to 5000 mg/kg.

Regarding `CON=C(C(=O)NC1C(=O)N2C(C(=O)OCOC(=O)C(C)(C)C)=C(CSc3nc(=O)c(OCOC(=O)C(C)(C)C)nn3C)CSC12)c1ccco1` [Derivative B, Methylene-(6R,7R)-3-{[[2,5-dihydro-2-methyl-5-oxo-6-[(pivaloyloxy)methoxy]-as-triazin-3-yl]thio]methyl}-7-[2-(2-furyl)-2-(methoxyimino)acetamido]-8-oxo-5-thia-1-azabicyclo[4.2.0]oct-2-ene-2-carboxylate pivalate (Z-isomer)], the ED50 was found to be 0.03 mg/kg in the series on Escherichia coli (setting [2]) and 0.02 mg/kg in the series on Escherichia coli (setting [3]). Besides, the LD50 at 24 h in series [1] lay in the range of 1250 to 2500 mg/kg.
